Values quoted from earlier work, collected in patent US20250360174A1, “ENGINEERED BACTERIA, ENGINEERED BIOFILMS, AND LIVING MATERIALS BASED ON BACILLUS SUBTILIS” (EAST CHINA UNIVERSITY OF SCIENCE AND TECHNOLOGY, priority 2024, published 2025).

Tested on: RAW264.7 cells

Which anti-inflammatory activity does the source give for `O[C@H]1[C@@H]2OC[C@H](O[C@H]1O)[C@H]2O` [L-AHG, 3,6-anhydro-α-L-galactose] here?
Its anti-inflammatory activity is “has been shown to have anti-inflammatory activity”.
